# Source: ChEMBL document CHEMBL3507680, “University of Dundee, Gates Library screen for HepG2 cell viability”
# Assay: Human HepG2 cell viability assay in 384 well format
# Assay type: toxicity, cell-based
# Design: dose 125 nL, time 70.5 hour; concentration not given beside the values
# Details: HepG2 cells, read-out: Inhibition
row,Structure (SMILES),cytotoxicity at 70.5 h [%]
1,Cc1ccccc1CSc1ncccc1C(=O)N(C)C,-2.93
2,CC(C)c1nc(CNc2ccc(CNS(C)(=O)=O)cc2)cs1,-8.66
3,COC(=O)c1ccc(N2CCN(CC(=O)NC(N)=O)C(C)C2)cc1 (centres undefined),-3.82
4,O=C(c1ccco1)N1CCO[C@@H]2CN(CC3CC3)CC[C@@H]2C1,28
5,O=C(CC1CCCC1)NCCn1ccc(-c2ccccn2)n1,4.96
6,COC1CCN(C(=O)NCC(N)=O)CC(=O)N(C)c2ccccc21 (centres undefined),-5.28
7,CC(C)c1cc(NC(=O)c2ccc([S+]([O-])C(C)C)cc2)[nH]n1 (centres undefined),-3.24
8,CN1CCCCC1CCC(=O)NCCCn1ncc2ccccc21 (centres undefined),-3.92
9,Cc1ccc(-c2nc(CN3CCc4nn(C)c(=O)cc4C3)no2)cc1,-15.2
10,CCN(Cc1cn(C)nc1-c1ccc2c(c1)OCCO2)CC1CCCO1 (centres undefined),-6.76
11,O=C(CCN1CCc2[nH]nc(C(F)(F)F)c2C1)Nc1ccccc1,-2.13
12,CC(c1ccc(S(C)(=O)=O)cc1)N(C)C(=O)c1ccccc1I (centres undefined),-4.13
13,COc1cc(C(=O)N2CCCS2(=O)=O)cc(Cl)c1OC,-9.28
14,CCOC(=O)[C@]12CCCN(Cc3cccs3)C[C@H]1CN(C(C)=O)C2,-1.84
15,Fc1cnc(N2CCC3(CC2)CC(OCc2cccnc2)CO3)nc1 (centres undefined),-0.216
16,Cc1ccc(S(=O)(=O)N2CCN(C)c3ccncc32)cc1F,-4.45
17,CCN1CCN(C(=O)C(C)n2cc(Br)cn2)CC1 (centres undefined),-1.55
18,O=C(COc1ccc(-c2ccccc2)nc1)NCC1CC1,-5.26
19,CN(C)C(=O)C1CCCN1CCCNC(=O)c1ccccc1F (centres undefined),-1.14
20,COC1COC2(CCN(Cc3ccco3)CC2)C1 (centres undefined),-8.76
21,CCN(CC)c1ccc(NC(=O)NCC2(C(N)=O)CCOCC2)cn1,1.3
22,Cc1noc(C)c1CN1CCOCC12CCN(c1nccs1)CC2,-8.54
23,Cc1n[nH]c(C2CN(C(=O)c3ccc4c(c3)COC4)CCO2)n1 (centres undefined),-1.57

row,Structure (SMILES),cytotoxicity at 70.5 h [%]
1,Cc1nc(C(C)C)sc1C(=O)N1CCC(N2CCSCC2)CC1,-12.7
2,O=C(c1cccc(OC2CCCC2)c1)N1CCCC(n2cncn2)C1 (centres undefined),5.3
3,CC(C)CNC(=O)C1=NOC2(CCN(Cc3ccoc3)C2)C1 (centres undefined),-0.398
4,COc1cc(N2CCOC(c3ccc(F)cc3)C2)ncn1 (centres undefined),-6.22
5,O=C(CCCn1cncn1)NC1CCc2nccn2C1 (centres undefined),-0.0953
6,CNC(=O)c1cn[nH]c1C1(C)CCCN(Cc2ccccn2)C1 (centres undefined),-7.3
7,Cn1ccc(CN2CCC(COC3CCCC3)CC2)cc1=O,-11
8,CNCC[C@H]1CC(C)(C)Oc2ccc(OC)cc21,-0.183
9,O=C(C1CC(=O)N(c2n[nH]c3cc(Br)ccc23)C1)N1CCCC1 (centres undefined),-9.16
10,O=C(NCCCOCC1CC1)Nc1ccc(F)cc1,0.857
11,Cc1cc(-c2cnn(CCNC(=O)c3cnn(C)c3)c2C2CC2)on1,-2.33
12,Cn1cnc2cc(CCC(=O)Nc3nc[nH]n3)ccc21,-0.94
13,CC(C)[C@H]1COC(=O)N1CC(=O)N1CCCN(C(=O)c2ccoc2)CC1,-8.34
14,CC(=O)NCCNC(=O)CN1CCCC1c1c(C)nn(C)c1C (centres undefined),25.7
15,O=C1NCC2(CCCN(C(=O)CCn3cnc4ccccc43)CC2)O1 (centres undefined),-1.01
16,CCn1cc(-c2n[nH]c(=O)n2-c2ccc(OC)c(OC)c2)c(C)n1,-4.02
17,CN(c1cccnc1N1CCCC1)S(=O)(=O)c1cccs1,12.7
18,CC(C)c1nc(CN2CCOC(Cn3cccn3)C2)no1 (centres undefined),1.63
19,O=C(Nc1nccs1)NC1CCN(Cc2ccccc2)CC1,-15.7
20,Cn1ccc2cc(C(=O)N3CC[C@@]4(O)CCCC[C@H]4C3)ccc21,-13.9
21,CC(C)N1CCN(C(=O)Nc2cnc3c(cnn3C(C)C)c2)CC1,1.68
22,N#Cc1cccnc1N1CCCN(C(=O)CCn2cncn2)CC1,-4.22
23,Cc1nn(C)c(C)c1CN1CCNCC1,-4.45

row,Structure (SMILES),cytotoxicity at 70.5 h [%]
1,Cc1noc(C2(C)CCCN(C(=O)c3cnn(C)c3)C2)n1 (centres undefined),-7.96
2,O=C(O)C1c2nc[nH]c2CCN1CC(c1ccccc1)c1ccccc1 (centres undefined),-3.04
3,O=C(c1ccc(Cl)cn1)N1CCC(COCc2ccccc2)C1 (centres undefined),15.8
4,Cc1nc(NCc2ccc(F)cc2)cc(C(=O)N2CCOCC2)n1,-3.46
5,O=C(C1CCOCC1)N1CCc2onc(COc3cccnc3)c2C1,0.0469
6,Cc1cc(NC(=O)CNC2CCc3ncnn3C2)on1 (centres undefined),9.31
7,CC1=NOC(C(=O)N(C)CCCn2nc(C)cc2C)C1 (centres undefined),-0.336
8,CCN(CC)S(=O)(=O)N1C[C@@H]2CC[C@H](C1)N(Cc1cscn1)C2=O,-9.09
9,COc1ccc(CCn2cnnc2[S+](C)[O-])cc1 (centres undefined),-10
10,Cc1noc(C)c1C(=O)NCC(C)N1CCc2ccccc21 (centres undefined),9.63
11,Cc1c[nH]c(CN2CCOC(c3ccc(Cl)cc3)C2)c(C)c1=O (centres undefined),-4.57
12,CC(=O)N1CCC(N2CCN(Cc3ccc(C)o3)C(CCO)C2)CC1 (centres undefined),-6.87
13,Cc1nn(CC(=O)N2CCN(c3ccccc3F)CC2)c(C)c1Cl,-2.28
14,CN(C)[C@@H]1CCN(C(=O)NC2CCCC2)[C@H]1Cc1ccncc1,-9.4
15,CC(C)n1cc(CN(C)C[C@@H]2CCCN3CCCC[C@H]23)cn1,-6.94
16,NC(=O)C1CCN(C(=O)CCCc2ccc(Cl)c(Cl)c2)CC1,-6.88
17,CCn1cc(CN2CCCC(COc3ccccc3F)C2)cn1 (centres undefined),10.5
18,Cc1cccc(CNC(C)c2ccc(OCC(=O)NC3CC3)cc2)c1 (centres undefined),-0.442
19,Cc1c(C(=O)N(C)C)cccc1N(C)S(C)(=O)=O,0.872
20,Cc1cnc(C(=O)N2CCN3C[C@H](OCc4cccnc4)C[C@H]3C2)cn1,-9.39
21,CCc1nc(Cn2nc(C3CCNCC3)n(-c3ccccc3)c2=O)cs1,-5.68
22,CCn1c(C)cc(C(=O)N2CCC(NC(=O)c3cc(C)no3)CC2)c1C,-112
23,O=C(Nc1cnn(CCN2CCOCC2)c1)c1ccccc1O,0.705

row,Structure (SMILES),cytotoxicity at 70.5 h [%]
1,CC(C)CN1C[C@H](COCc2ccccc2)Oc2ncccc2C1=O,23.1
2,CS(=O)(=O)N1CCN(C(=O)CN2CCCc3c(F)cc(F)cc32)CC1,-3.95
3,COC(=O)c1ccc(CNC2CC(=O)N(Cc3cccc(F)c3)C2)cc1 (centres undefined),0.023
4,CC(NC(=O)c1ccoc1)c1ccc2c(c1)CCC(=O)N2 (centres undefined),-0.0886
5,COc1cc(OC)cc(-c2noc(CN)n2)c1,45.5
6,CCN(Cc1ccccc1O)CC1(C)Cc2c(N)nc(N)nc2O1 (centres undefined),-3.26
7,Cc1nc(CN2CCCC3(CCN(c4cnn(C)c4)C3=O)C2)cs1 (centres undefined),-11.6
8,CC1(Cc2ccccn2)NCCc2[nH]cnc21 (centres undefined),-1.72
9,COc1ccc(NC(=O)NCc2ccnc(N(C)C)c2)cn1,14.3
10,Cc1n[nH]cc1C(=O)N1CCCC(c2cccc(-n3ccnc3)n2)C1 (centres undefined),-7.73
11,COCCc1noc(CNC2CCSC2)n1 (centres undefined),-10.2
12,Cc1ccc(C(=O)N2CCC3(CCN(Cc4ccccn4)C3=O)C2)cn1 (centres undefined),-5.23
13,Cc1nc(NC2CCCC2)c2c(n1)c(C)nn2C,-14.9
14,CC(C)NC(=O)NC[C@H]1OC[C@@H](NCc2ccccc2F)[C@@H]1O,-4.73
15,Cc1ccc2c(c1)C1(CC2)CCN(CC(=O)O)CC1,5.44
16,O=C(c1cc[nH]n1)N1CCc2ccc(S(=O)(=O)N3CCOCC3)cc2C1,3.21
17,NC(=O)c1ccc(CN2C(=O)C3(CCNCC3)Nc3ccccc32)cc1,26.6
18,O=C(NCc1ccc(Cl)s1)NCc1nnc2n1CCCCC2,-14.9
19,CCN1CCC(CNC(=O)NCc2cc(-c3ccc(C)cc3)no2)C1 (centres undefined),-1.11
20,CN(C)S(=O)(=O)N1CCCC(c2nccnc2-c2cccc(Cl)c2)C1 (centres undefined),-1.8
21,COc1ccc(NC(=O)N2CCCCCC2c2ccncc2)cn1 (centres undefined),-6.87
22,Cc1cccc(-n2nc(CC(C)C)nc2CCn2ccc(=O)[nH]c2=O)c1,-2.09
23,CCCc1nnc(N2CCN(c3cccc(C)c3C)CC2)o1,-14.8

row,Structure (SMILES),cytotoxicity at 70.5 h [%]
1,CNc1nc(CNC(=O)Nc2cccc(Cl)c2OC)cs1,-3.54
2,Cn1nc(C2CN(C(=O)c3cccnc3)C2)c2nccnc21,-3.75
3,CN(C)C1CN(C(=O)Nc2cccc(OC(F)F)c2)C1,17.6
4,Cc1cc(S(C)(=O)=O)c(C)c(S(=O)(=O)N2CCN(C)CC2)c1,32.6
5,O=C(CCc1cscn1)NS(=O)(=O)c1ccc2c(c1)CCC2,8.97
6,COc1c(CNCc2ccc(N(C)C)nc2)c(C(C)C)nn1C,1.68
7,COc1ccc(OCC2CCCN(c3nc(CO)cs3)C2)cc1 (centres undefined),-9.63
8,CCOc1ccc(OC2CCCN(c3cnn(C)c3)C2=O)cc1 (centres undefined),10.6
9,Cc1cc(C)n(CC(=O)N2CCC(c3nc(C)no3)CC2)n1,2.07
10,CC(=O)N1CCC2(CCCN(C(=O)CCN3CCCCC3)C2)C1 (centres undefined),20.2
11,COCCNC(=O)N1CCOCC1c1c(C)nn(C)c1C (centres undefined),-1.43
12,Cc1nc(CC(C)C)sc1C(=O)N1CCC(C2(C)OCCO2)CC1,2.11
13,CC1(C(=O)NCCc2ccc(F)cc2)CCOCC1,-7.61
14,O=S(=O)(Cc1ccccc1Cl)CC(O)CO (centres undefined),4.74
15,Cc1ccc(CN2CC[C@H]3[C@H]2CCN3S(C)(=O)=O)s1,-6.63
16,O=C1c2cnc(N3CCOCC3)nc2CN1c1ccc2c(c1)OCO2,-5.67
17,N#Cc1ccccc1C(=O)N1C[C@@H](CN2CCOCC2)[C@@H](CO)C1,-12
18,CCn1c(C2CCCN2Cc2noc(C(C)(C)C)n2)nc2ccccc21 (centres undefined),-26.2
19,COc1cnc(CSc2nnc(C)s2)cc1OCC(=O)NC1CCCC1,2.36
20,CCOc1cc(=O)n2c(c1C(=O)OCc1ccc(OC)cc1)CCCC2,-14.9
21,Cc1ccc(C(=O)N2CCC3(CCCN(c4ncc(F)cn4)C3)C2)cn1 (centres undefined),-5.14
22,Cc1csc([C@H]2C[C@@H]3CCN(Cc4cnn(C)c4)C[C@H]3O2)n1,-7.09
